Reference: US10130604B2, “Composition and method for treating neurodegenerative disease” (priority 2012, dated 2018)
Read-outs that look alike come from different tables or passages of the source.

Experiments:
[1] = gut; cited from earlier work
[2] = test system: Y39C-α-synuclein transgenic mice; assay: Rotarod test in Y39C-α-synuclein transgenic mice treated with glycerol phenylbutyrate; type: in vivo, mouse
Procedure: Transgenic mice were genetically programmed from birth to develop a “Parkinson-Plus” condition by depositing an abnormal form of a protein called Y39C-α-synuclein in neurons of the brain under control of the Thy1 promoter (see Zhou et al., J. Biol. Chem., 2008, 283, 9863-70). […] After 6 weeks of daily treatment, animals were placed on a rotating rod (Rotarod) at different speeds for up to 5 minutes. Animals which could not keep up with the turning rod fell off. The time they were able to stay on the rod was noted. […] These differences were statistically significant at the higher speeds, 21 and 26 rpm. At the highest speed, 33 rpm, all animals fell off the rod after about 50 seconds.

α-synuclein = settings: C57BL/6 mice, drinking water, two weeks
Procedure: (§1) Cells were lysed in a dissociation buffer containing 50 mM Tris-HCl, 10 mM NaCl, 0.1% Triton X-100 plus protease inhibitor cocktail (Roche). The mouse brain tissues were dissected and quickly frozen in dry ice. Tissues were thawed on ice and homogenized in dissociation buffer with protease inhibitors (Roche). Protein concentration was determined by the BCA method (Pierce). Fifty μg of protein was separated on 10% SDSPAGE gel and transferred to a nitrocellulose membrane. After blocking nonspecific binding, membranes were incubated with antibodies to DJ-1 (1:5000, Chemicon), α-synuclein (1:3000, Transduction Laboratories), TH (1;2000, PelFreez), and β-actin (1:4000, Sigma). Blots were incubated with HRP-conjugated secondary antibody (1:10,000; Jackson Immune Research), followed by chemiluminescent detection (Perkin Elmer life Sciences) (31,38).
(§2) Adult C57BL/6 mice (4-6 months old) were treated with PB and SB in drinking water for 14 days. The PB and SB were dissolved in water at concentrations of 500, 1000, 1500, and 2000 mg/L. Mice typically drink 4-5 ml of water per day, and their drinking volumes were not affected by the addition of PB or SB. Control animals received water with sodium chloride added to the same molarity as the sodium in the drug-treated animals. […]

DJ-1 [3] = settings: N27 cells, two days treatment, Western blot
Procedure: Dopaminergic cells derived from embryonic day 12 rat mesencephalon and immortalized with the SV40 large T antigen designated 1RB3AN27, (N27 cells) were used (37). […] Cells were lysed in a dissociation buffer containing 50 mM Tris-HCl, 10 mM NaCl, 0.1% Triton X-100 plus protease inhibitor cocktail (Roche). […] Protein concentration was determined by the BCA method (Pierce). Fifty μg of protein was separated on 10% SDSPAGE gel and transferred to a nitrocellulose membrane. […] Blots were incubated with HRP-conjugated secondary antibody (1:10,000; Jackson Immune Research), followed by chemiluminescent detection (Perkin Elmer life Sciences) (31,38).

human DJ-1 promoter = assay: Human DJ-1 promoter-luciferase reporter assay in HEK293 cells; type: cell-based; settings: 48 hr treatment
Text: The human DJ-1 2 kb promoter area was amplified by PCR using genomic DNA from HEK293 cells. The human DJ-1 promoter was then cloned into the pGLuc-Basic vector, and that reporter vector was transfected into HEK293 cells.

DJ-1 [4] = settings: HEK293 reporter cells, 48 hr treatment
Procedure: Cells were lysed in a dissociation buffer containing 50 mM Tris-HCl, 10 mM NaCl, 0.1% Triton X-100 plus protease inhibitor cocktail (Roche). […] Protein concentration was determined by the BCA method (Pierce). Fifty μg of protein was separated on 10% SDSPAGE gel and transferred to a nitrocellulose membrane. After blocking nonspecific binding, membranes were incubated with antibodies to DJ-1 (1:5000, Chemicon), α-synuclein (1:3000, Transduction Laboratories), TH (1;2000, PelFreez), and β-actin (1:4000, Sigma). Blots were incubated with HRP-conjugated secondary antibody (1:10,000; Jackson Immune Research), followed by chemiluminescent detection (Perkin Elmer life Sciences) (31,38).
The luciferase assay was based on the pGLuc-Basic vector (NEB). The human DJ-1 2 kb promoter area was amplified by PCR using genomic DNA from HEK293 cells. The human DJ-1 promoter was then cloned into the pGLuc-Basic vector, and that reporter vector was transfected into HEK293 cells. G418 (200 μg/ml) was applied to the cultures, and resistant clones were selected and assayed for luciferase activity. […] Culture medium samples (20 μl) were incubated with Gaussia luciferase assay substrate (NEB), and luminescence was measured in a 96-well plate reader (BioTek Synergy HT Multi-Mode microplate reader).

DJ-1 [5] = settings: C57BL/6 mice, drinking water, two weeks, vs control
Procedure: as §1, §2

N27 cells [6] = settings: two days pretreatment, then A53T α-synuclein adenovirus two days
dopamine neurons = settings: vs MPTP alone
Procedure: Treatment with PB continued after MPTP injection. […] One week after MPTP lessoning, mouse brain tissues were dissected for Western blot and HPLC analysis. Mouse striatum was frozen in dry ice, sonicated in ice-cold 0.2 m perchloric acid and centrifuged at 15,000 g for 15 min at 4° C. An aliquot (5 μL) of the supernatant solution was analyzed by HPLC equipped with an electrochemical detector (CoulArray system ESA Model 5600; ESA, Boston, Mass., USA), a pump (ESA Model 580) set at 1.5 mL/min, and a reverse-phase C18 column (3 μm, 100 Å 4.6 mm, Waters, Milford, Mass., USA). The mobile phase was composed of 100 mm citric acid, 2% methanol, 1 mm EDTA and 5 mg/L sodium octyl sulfate (pH 3.0).

[7] = cited from earlier work
Vamp2 = settings: A53T human α-synuclein overexpression plus phenylbutyrate
Nrf2 = settings: N27 dopamine neurons
[8] = test system: Y39C α-synuclein transgenic mice; settings: 1000 mg/L drinking water, 6 and 12 weeks
Procedure: The [MUT] α-synuclein transgenic mice were divided into younger (6-8 months=Young Tg) and older (10-12 months=Old Tg) groups. Each group received PB (1000 mg/L, 5.4 mM) or vehicle (NaCl) in the drinking water for 3 months. Animals were tested for rotarod and water maze performance after 6-weeks and 12-weeks of treatment. Spatial learning was assessed using the Morris water maze. The maze included a circular tank (120 cm in diameter) filled to 10 cm below the edge of the tank with 27° C. water that was made opaque by the addition of non-toxic black ink. A circular escape platform (10 cm in diameter) was located 1 cm below the surface of the water in a constant location in the northwest quadrant of the tank. Mice were first acclimated to the maze during three trial habituation sessions. Each testing session consisted of three consecutive days with four trials per day. The platform was invisible in the pool, and mice were allowed to swim for 60 sec before being returned to the home cage. The latency from all training and testing sessions was collected.

N27 cells [9] = test system: N27 cells
N27 cells [10] = settings: shDJ-1 N27 cells; H2O2 75 or 100 μM, 6-OHDA 60 or 80 μM
[11] = test system: Y39C α-synuclein transgenic mice; settings: 1000 mg/L drinking water, 6 and 12 weeks; remark: listed apart in the source
Procedure: The [MUT] α-synuclein transgenic mice were divided into younger (6-8 months=Young Tg) and older (10-12 months=Old Tg) groups. Each group received PB (1000 mg/L, 5.4 mM) or vehicle (NaCl) in the drinking water for 3 months. Animals were tested for rotarod and water maze performance after 6-weeks and 12-weeks of treatment. Mice were tested for their ability to run on a 3 cm diameter rotating rod (rotarod) at speeds ranging from 3 to 33 rpm. The protocol consisted of two phases: habituation (Day 1) and rotated training/testing (Days 2 to 5). During habituation on Day 1, the mice were trained to remain on the rotarod at 3 rpm. […] Each test day, the speed was increased, reaching 33 rpm by Day 5. The time the mice spent on the rotarod without falling was recorded for each trial.

[12] = 1000 mg/L drinking water, Western blot

**Q.** For `O=C(CCCc1ccccc1)OCC(COC(=O)CCCc1ccccc1)OC(=O)CCCc1ccccc1` [glycerol phenylbutyrate, Glycerol phenylbutyrate], which “metabolism of the pro-drug” value [1] is on record?
**A.** The value was “metabolized in the gut to produce the active compound phenylbutyrate”.

**Q.** And the “time able to stay on the rotating rod” value ([2]; 6 weeks daily treatment, vs glycerol, significant at 21 and 26 rpm)?
**A.** The value was “able to stay on the rod longer”.

**Q.** And the “time until animals fell off the rod at the highest speed” value ([2]; 33 rpm, all animals)?
**A.** The value was “about 50 seconds”.

**Q.** Which results are given for `CCCC(=O)[O-].[Na+]` [sodium butyrate]?
**A.** α-synuclein concentrations in brain (α-synuclein): not changed; DJ-1 protein levels (DJ-1 [3]): 300 % of control; luciferase activity (human DJ-1 promoter): increased luciferase activity; DJ-1 protein levels (DJ-1 [4]): increased; brain DJ-1 levels (DJ-1 [5]): significantly increased DJ-1 levels

**Q.** For `O=C([O-])CCCc1ccccc1.[Na+]` [sodium phenylbutyrate], which “cell viability after A53T mutant α-synuclein expression” value (N27 cells [6]) is on record?
**A.** Its value is “increased cell viability”.

**Q.** And the “number of cells with α-synuclein aggregates” value (N27 cells [6])?
**A.** The value was “reduced the number of cells with α-synuclein aggregates”.

**Q.** And the “striatal dopamine levels (HPLC)” value (dopamine neurons; 1000 mg/L drinking water two weeks before MPTP)?
**A.** Its value is “significantly increased striatal dopamine levels”.

**Q.** What about the “DJ-1 levels in striatum” value (dopamine neurons; [12]) of the same molecule?
**A.** Its value is “significantly increased”.

**Q.** What about the “tyrosine hydroxylase protein levels in striatum” value (dopamine neurons; [12]) of the same molecule?
**A.** The value was “increased”.

**Q.** What about the “numbers of TH positive dopamine neurons in the substantia nigra” value (dopamine neurons; 1000 mg/L drinking water) of the same molecule?
**A.** The value was “significantly higher numbers of TH positive dopamine neurons”.

**Q.** What about the half-life in vivo [7] of the same molecule?
**A.** Its half-life in vivo is 50 min.

**Q.** And the “Vamp2 overexpression, A53T with addition of phenylbutyrate” value (Vamp2)?
**A.** The value was 200 fold.

**Q.** And the “increase in Lamp2 gene expression, with A53T” value (Lamp2; A53T expression plus phenylbutyrate)?
**A.** The value was 400 fold.

**Q.** What about the “increase in Lamp2 expression” value (Lamp2; N27 dopamine neurons, drug alone) of the same molecule?
**A.** Its value is “about 30 fold”.

**Q.** What about the “increase in Lamp2 expression, pretreatment followed by H2O2” value (Lamp2; pretreatment 48 hr, then H2O2) of the same molecule?
**A.** The value was 200 fold.

**Q.** And the luciferase activity (human DJ-1 promoter)?
**A.** Its luciferase activity is “increased luciferase activity”.

**Q.** What about the “increase in Nrf2 mRNA” value (Nrf2) of the same molecule?
**A.** Its value is 50 fold.

**Q.** What about the “water maze performance, Young Tg mice” value [8] of the same molecule?
**A.** Its value is “did not change water maze performance”.

**Q.** What about the “water maze function, Old Tg mice” value ([8]; vs vehicle) of the same molecule?
**A.** The value was “prevented the age-related decline in water maze function”.

**Q.** What about the “cell viability in naïve N27 cells” value (N27 cells [9]; H2O2 75 or 100 μM, 6-OHDA 60 or 80 μM) of the same molecule?
**A.** The value was “significantly improved cell viability”.

**Q.** And the cell survival (N27 cells [9]; cells exposed to H2O2 and A53T, not shown)?
**A.** The cell survival was “substantially better”.

**Q.** And the “neuroprotective effect against H2O2 and 6-OHDA-induced toxicity after DJ-1 knockdown” value (N27 cells [10])?
**A.** Its value is “effectively abolished the neuroprotective effect”.

**Q.** What about the “motor function (rotarod), Young Tg mice” value [11] of the same molecule?
**A.** The value was “did not change motor function”.

**Q.** And the “motor function (rotarod), Old Tg mice” value ([11]; vs vehicle)?
**A.** Its value is “significantly improved motor function”.
